Test results as given in patent publication US11498899B2, “Nitrone herbicides” (FMC Corporation, priority 2016, dated 2022).

What was measured:
[1] = test system: ducksalad (Heteranthera limosa); experiment: Test B flooded paddy test, visual rating 0-100; details: Flood, 250 g ai/ha, applied to paddy water, rated after 13 to 15 days
[2] = test system: kochia (Kochia scoparia); experiment: Test A preemergence, visual injury rating 0-100; format: in vivo
[3] = test system: ragweed (common ragweed, Ambrosia elatior); experiment: Test A preemergence, visual injury rating 0-100; format: in vivo
[4] = test system: foxtail, giant (giant foxtail, Setaria faberii); experiment: Test A preemergence, visual injury rating 0-100; format: in vivo
[5] = test system: pigweed (Amaranthus retroflexus); experiment: Test A preemergence, visual injury rating 0-100; format: in vivo
[6] = test system: ryegrass, Italian (Italian ryegrass, Lolium multiflorum); experiment: Test A preemergence, visual injury rating 0-100; format: in vivo
[7] = test system: barnyardgrass (Echinochloa crus-galli); experiment: Test A preemergence, visual injury rating 0-100 (0 no effect, 100 complete control); format: in vivo
[8] = test system: rice (Oryza sativa); experiment: Test B flooded paddy test, visual rating 0-100 (0 no effect, 100 complete control); details: Flood, 250 g ai/ha, applied to paddy water, rated after 13 to 15 days
[9] = test system: barnyardgrass (Echinochloa crus-galli); experiment: Test A postemergence, visual injury rating 0-100; format: in vivo; details: 0 to 100 scale
[10] = test system: kochia (Kochia scoparia); experiment: Test A postemergence, visual injury rating 0-100; format: in vivo; details: 0 to 100 scale
[11] = test system: blackgrass (Alopecurus myosuroides); experiment: Test A postemergence, visual injury rating 0-100; format: in vivo; details: 0 to 100 scale
[12] = test system: wheat (Triticum aestivum); experiment: Test A postemergence, visual injury rating 0-100; format: in vivo; details: 0 to 100 scale
[13] = test system: galium (catchweed bedstraw, Galium aparine); experiment: Test A postemergence, visual injury rating 0-100; format: in vivo; details: 0 to 100 scale
[14] = test system: ragweed (common ragweed, Ambrosia elatior); experiment: Test A postemergence, visual injury rating 0-100; format: in vivo; details: 0 to 100 scale
[15] = test system: foxtail, giant (giant foxtail, Setaria faberii); experiment: Test A postemergence, visual injury rating 0-100; format: in vivo; details: 0 to 100 scale
[16] = test system: pigweed (Amaranthus retroflexus); experiment: Test A postemergence, visual injury rating 0-100; format: in vivo; details: 0 to 100 scale
[17] = test system: corn (Zea mays); experiment: Test A postemergence, visual injury rating 0-100; format: in vivo; details: 0 to 100 scale
[18] = test system: ryegrass, Italian (Italian ryegrass, Lolium multiflorum); experiment: Test A postemergence, visual injury rating 0-100; format: in vivo; details: 0 to 100 scale
[19] = test system: barnyardgrass (Echinochloa crus-galli); experiment: Test B flooded paddy test, visual rating 0-100; details: Flood, 250 g ai/ha, applied to paddy water, rated after 13 to 15 days

COc1cc(C)cc(C2CC(C)=[N+]([O-])C2C(=O)Nc2cccc(F)c2F)c1 (stereo not shown) [Compound 91]
Ducksalad plant response rating (0 to 100 scale) [1]: 55
Kochia plant response rating (0 to 100 scale) ([2]; 125 g ai/ha): 0
Kochia plant response rating (0 to 100 scale) ([2]; 500 g ai/ha): 60
Ragweed plant response rating (0 to 100 scale) ([3]; 125 g ai/ha): 20
Ragweed plant response rating (0 to 100 scale) ([3]; 500 g ai/ha): 70
Foxtail, Giant plant response rating (0 to 100 scale) ([4]; 125 g ai/ha): 90
Foxtail, Giant plant response rating (0 to 100 scale) ([4]; 500 g ai/ha): 90
Pigweed plant response rating (0 to 100 scale) ([5]; 125 g ai/ha): 0
Pigweed plant response rating (0 to 100 scale) ([5]; 500 g ai/ha): 60
Ryegrass, Italian plant response rating (0 to 100 scale) ([6]; 125 g ai/ha): 80
Ryegrass, Italian plant response rating (0 to 100 scale) ([6]; 500 g ai/ha): 90
Barnyardgrass plant response rating (0 to 100 scale) ([7]; 125 g ai/ha): 90
Barnyardgrass plant response rating (0 to 100 scale) ([7]; 500 g ai/ha): 90
Rice plant response rating (0 to 100 scale) [8]: 0
Barnyardgrass plant response rating ([9]; 125 g ai/ha): 70
Barnyardgrass plant response rating ([9]; 500 g ai/ha): 90
Kochia plant response rating ([10]; 125 g ai/ha): 0
Kochia plant response rating ([10]; 500 g ai/ha): 30
Blackgrass plant response rating ([11]; 125 g ai/ha): 60
Blackgrass plant response rating ([11]; 500 g ai/ha): 80
Wheat plant response rating ([12]; 125 g ai/ha): 20
Wheat plant response rating ([12]; 500 g ai/ha): 50
Galium plant response rating ([13]; 125 g ai/ha): 0
Galium plant response rating ([13]; 500 g ai/ha): 30
Ragweed plant response rating ([14]; 125 g ai/ha): 0
Ragweed plant response rating ([14]; 500 g ai/ha): 30
Foxtail, Giant plant response rating ([15]; 125 g ai/ha): 70
Foxtail, Giant plant response rating ([15]; 500 g ai/ha): 90
Pigweed plant response rating ([16]; 125 g ai/ha): 0
Pigweed plant response rating ([16]; 500 g ai/ha): 30
Corn plant response rating ([17]; 125 g ai/ha): 20
Corn plant response rating ([17]; 500 g ai/ha): 70
Ryegrass, Italian plant response rating ([18]; 125 g ai/ha): 50
Ryegrass, Italian plant response rating ([18]; 500 g ai/ha): 50
Barnyardgrass plant response rating (0 to 100 scale) [19]: 65

CC1=[N+]([O-])C(C(=O)Nc2cccc(F)c2F)C(c2cc(C)cc(F)c2)C1 (racemic) [Compound 103]
Ducksalad plant response rating (0 to 100 scale) [1]: 80
Kochia plant response rating (0 to 100 scale) ([2]; 125 g ai/ha): 10
Kochia plant response rating (0 to 100 scale) ([2]; 500 g ai/ha): 80
Ragweed plant response rating (0 to 100 scale) ([3]; 125 g ai/ha): 60
Ragweed plant response rating (0 to 100 scale) ([3]; 500 g ai/ha): 90
Foxtail, Giant plant response rating (0 to 100 scale) ([4]; 125 g ai/ha): 90
Foxtail, Giant plant response rating (0 to 100 scale) ([4]; 500 g ai/ha): 100
Pigweed plant response rating (0 to 100 scale) ([5]; 125 g ai/ha): 30
Pigweed plant response rating (0 to 100 scale) ([5]; 500 g ai/ha): 70
Ryegrass, Italian plant response rating (0 to 100 scale) ([6]; 500 g ai/ha): 90
Barnyardgrass plant response rating (0 to 100 scale) ([7]; 125 g ai/ha): 90
Barnyardgrass plant response rating (0 to 100 scale) ([7]; 500 g ai/ha): 90
Rice plant response rating (0 to 100 scale) [8]: 0
Barnyardgrass plant response rating ([9]; 125 g ai/ha): 80
Barnyardgrass plant response rating ([9]; 500 g ai/ha): 90
Kochia plant response rating ([10]; 125 g ai/ha): 0
Kochia plant response rating ([10]; 500 g ai/ha): 30
Blackgrass plant response rating ([11]; 125 g ai/ha): 80
Blackgrass plant response rating ([11]; 500 g ai/ha): 70
Wheat plant response rating ([12]; 125 g ai/ha): 20
Wheat plant response rating ([12]; 500 g ai/ha): 70
Galium plant response rating ([13]; 125 g ai/ha): 0
Galium plant response rating ([13]; 500 g ai/ha): 50
Ragweed plant response rating ([14]; 125 g ai/ha): 40
Ragweed plant response rating ([14]; 500 g ai/ha): 40
Foxtail, Giant plant response rating ([15]; 125 g ai/ha): 80
Foxtail, Giant plant response rating ([15]; 500 g ai/ha): 90
Pigweed plant response rating ([16]; 125 g ai/ha): 0
Pigweed plant response rating ([16]; 500 g ai/ha): 50
Corn plant response rating ([17]; 125 g ai/ha): 50
Corn plant response rating ([17]; 500 g ai/ha): 60
Ryegrass, Italian plant response rating ([18]; 125 g ai/ha): 50
Ryegrass, Italian plant response rating ([18]; 500 g ai/ha): 70
Barnyardgrass plant response rating (0 to 100 scale) [19]: 65

CC1=[N+]([O-])[C@H](C(=O)Nc2cccc(F)c2F)[C@@H](c2ccc(C(F)(F)F)c(F)c2)C1 (relative stereo) [Compound 61, rel-(2S,3R)—N-(2,3-Difluorophenyl)-3-[3-fluoro-4-(trifluoromethyl)phenyl]-3,4-dihydro-5-methyl-2H-pyrrole-2-carboxamide 1-oxide]
Ducksalad plant response rating (0 to 100 scale) [1]: 74
Kochia plant response rating (0 to 100 scale) ([2]; 125 g ai/ha): 30
Kochia plant response rating (0 to 100 scale) ([2]; 500 g ai/ha): 80
Ragweed plant response rating (0 to 100 scale) ([3]; 125 g ai/ha): 50
Ragweed plant response rating (0 to 100 scale) ([3]; 500 g ai/ha): 80
Foxtail, Giant plant response rating (0 to 100 scale) ([4]; 125 g ai/ha): 90
Foxtail, Giant plant response rating (0 to 100 scale) ([4]; 500 g ai/ha): 90
Pigweed plant response rating (0 to 100 scale) ([5]; 125 g ai/ha): 80
Pigweed plant response rating (0 to 100 scale) ([5]; 500 g ai/ha): 90
Ryegrass, Italian plant response rating (0 to 100 scale) ([6]; 125 g ai/ha): 80
Ryegrass, Italian plant response rating (0 to 100 scale) ([6]; 500 g ai/ha): 90
Barnyardgrass plant response rating (0 to 100 scale) ([7]; 125 g ai/ha): 90
Barnyardgrass plant response rating (0 to 100 scale) ([7]; 500 g ai/ha): 90
Rice plant response rating (0 to 100 scale) [8]: 0
Barnyardgrass plant response rating ([9]; 125 g ai/ha): 70
Barnyardgrass plant response rating ([9]; 500 g ai/ha): 90
Kochia plant response rating ([10]; 125 g ai/ha): 0
Kochia plant response rating ([10]; 500 g ai/ha): 30
Blackgrass plant response rating ([11]; 125 g ai/ha): 50
Blackgrass plant response rating ([11]; 500 g ai/ha): 90
Wheat plant response rating ([12]; 125 g ai/ha): 70
Wheat plant response rating ([12]; 500 g ai/ha): 90
Galium plant response rating ([13]; 125 g ai/ha): 50
Galium plant response rating ([13]; 500 g ai/ha): 60
Ragweed plant response rating ([14]; 125 g ai/ha): 0
Ragweed plant response rating ([14]; 500 g ai/ha): 50
Foxtail, Giant plant response rating ([15]; 125 g ai/ha): 70
Foxtail, Giant plant response rating ([15]; 500 g ai/ha): 90
Pigweed plant response rating ([16]; 125 g ai/ha): 30
Pigweed plant response rating ([16]; 500 g ai/ha): 50
Corn plant response rating ([17]; 125 g ai/ha): 50
Corn plant response rating ([17]; 500 g ai/ha): 90
Ryegrass, Italian plant response rating ([18]; 125 g ai/ha): 80
Ryegrass, Italian plant response rating ([18]; 500 g ai/ha): 80
Barnyardgrass plant response rating (0 to 100 scale) [19]: 65

CC1=[N+]([O-])C(C(=O)Nc2cccc(F)c2F)C(c2cccc(Br)n2)C1 (racemic) [Compound 65]
Ducksalad plant response rating (0 to 100 scale) [1]: 60
Kochia plant response rating (0 to 100 scale) ([2]; 125 g ai/ha): 0
Kochia plant response rating (0 to 100 scale) ([2]; 500 g ai/ha): 0
Ragweed plant response rating (0 to 100 scale) ([3]; 125 g ai/ha): 0
Ragweed plant response rating (0 to 100 scale) ([3]; 500 g ai/ha): 0
Foxtail, Giant plant response rating (0 to 100 scale) ([4]; 125 g ai/ha): 0
Foxtail, Giant plant response rating (0 to 100 scale) ([4]; 500 g ai/ha): 90
Pigweed plant response rating (0 to 100 scale) ([5]; 125 g ai/ha): 0
Pigweed plant response rating (0 to 100 scale) ([5]; 500 g ai/ha): 0
Ryegrass, Italian plant response rating (0 to 100 scale) ([6]; 125 g ai/ha): 0
Ryegrass, Italian plant response rating (0 to 100 scale) ([6]; 500 g ai/ha): 100
Barnyardgrass plant response rating (0 to 100 scale) ([7]; 125 g ai/ha): 0
Barnyardgrass plant response rating (0 to 100 scale) ([7]; 500 g ai/ha): 90
Rice plant response rating (0 to 100 scale) [8]: 10
Barnyardgrass plant response rating ([9]; 125 g ai/ha): 0
Barnyardgrass plant response rating ([9]; 500 g ai/ha): 0
Kochia plant response rating ([10]; 125 g ai/ha): 0
Kochia plant response rating ([10]; 500 g ai/ha): 0
Blackgrass plant response rating ([11]; 125 g ai/ha): 0
Blackgrass plant response rating ([11]; 500 g ai/ha): 0
Wheat plant response rating ([12]; 125 g ai/ha): 0
Wheat plant response rating ([12]; 500 g ai/ha): 10
Galium plant response rating ([13]; 125 g ai/ha): 0
Galium plant response rating ([13]; 500 g ai/ha): 30
Ragweed plant response rating ([14]; 125 g ai/ha): 0
Ragweed plant response rating ([14]; 500 g ai/ha): 0
Foxtail, Giant plant response rating ([15]; 125 g ai/ha): 0
Foxtail, Giant plant response rating ([15]; 500 g ai/ha): 20
Pigweed plant response rating ([16]; 125 g ai/ha): 0
Pigweed plant response rating ([16]; 500 g ai/ha): 0
Corn plant response rating ([17]; 125 g ai/ha): 0
Corn plant response rating ([17]; 500 g ai/ha): 0
Ryegrass, Italian plant response rating ([18]; 125 g ai/ha): 0
Ryegrass, Italian plant response rating ([18]; 500 g ai/ha): 0
Barnyardgrass plant response rating (0 to 100 scale) [19]: 15
